Laboratory results published in BigSolDB 2.1.

CO/N=C(\C(=O)Sc1nc2ccccc2s1)c1csc(N)n1
Details | solubility (mole fraction)
in 1,2-dichloroethane, 277.83 K | 0.000358
in 1,2-dichloroethane, 282.77 K | 0.000458
in 1,2-dichloroethane, 287.63 K | 0.000619
in 1,2-dichloroethane, 292.84 K | 0.000876
in 1,2-dichloroethane, 297.85 K | 0.00118
in 1,2-dichloroethane, 302.64 K | 0.00154
in THF, 278.4 K | 0.0243
in THF, 283.75 K | 0.0259
in THF, 288.8 K | 0.028
in THF, 293.25 K | 0.0311
in THF, 298.06 K | 0.0352
in THF, 302.95 K | 0.0397
in acetone, 278.32 K | 0.00245
in acetone, 283.31 K | 0.00286
in acetone, 288.15 K | 0.00334
in acetone, 293.2 K | 0.0039
in acetone, 298.54 K | 0.00472
in acetone, 303.28 K | 0.0057
in acetonitrile, 279.45 K | 0.000216
in acetonitrile, 283.46 K | 0.000262
in acetonitrile, 288.45 K | 0.000342
in acetonitrile, 292.98 K | 0.000451
in acetonitrile, 297.47 K | 0.000581
in acetonitrile, 302.45 K | 0.000761
in dichloromethane, 278.6 K | 0.000719
in dichloromethane, 283.64 K | 0.000967
in dichloromethane, 288.46 K | 0.00128
in dichloromethane, 294.03 K | 0.00171
in dichloromethane, 298.71 K | 0.00217
in dichloromethane, 303.44 K | 0.00267
